Measured values as given in patent US8114406B2, “Peptides and their utility in modulation of behavior of cells expressing α3β1 integrins” (The United States of America as represented by the …, priority 1999, dated 2012).
Like-named read-outs stand apart in the source and are kept apart here. Where no end group is shown, it is not given here.

Legend:
[1] = tested on: MDA-MB-435 breast carcinoma cells
Method: MDA-MB-435 cell adhesion to microliter plate wells coated with 5 uM peptide 678 was determined in the presence of the indicated concentrations of soluble carboxamidomethyl-peptide 716 or peptide 716 covalently linked to FICOLL™ as previously described (Guo et al., 1997). After washing twice to remove unattached cells, adherent cells were quantified by detection of cellular hexosaminidase using p-nitrophenyl-N-acetylglucosaminide as substrate. Released p-nitrophenol was detected by absorbance at 405 nm. Results are mean+/−SD, n=3.
In this case, the adherent cells are quantified by detection of cellular hexosaminidase using p-nitrophenyl-N-acetylglucosaminidine as substrate. Released p-nitrophenol is detected by absorbance at 405 nm.

[2] = tested on: OH1 SCLC cells; assay type: cell-based, human; conditions: 72 h
Method: Net, proliferation was determined by the CellTiter assay (Promega) and is presented as mean±SD, n=3. […] The cells were fixed and photographed using Nomarski optics. Bar=100 μm. […] Panel E: α3β1 Integrin ligands cooperate with EGF to inhibit OH1 cell proliferation. […] Net proliferation is presented as a percent of the -EGF control (mean±SD, n=3 for treated groups and n=6 for control groups).
Proteins and peptides were immobilized on Nunc Maxisorp 96 well plates by overnight incubation with the proteins or peptides dissolved in 50 μl of sterile Dulbecco's PBS. The supernatant fluid was removed, and the wells were incubated for 30 min. in DPBS containing 1% BSA. OH1 cells (1×10^4/well) were added in RPMI containing 15% FCS and incubated for 72 h at 37° in 5% CO2. For assessing inhibition by soluble proteins or peptides, OH1 cells were grown in suspension in Nunclon 96 well tissue culture plates using the same medium.

[3] = tested on: MDA-MB-435 breast carcinoma cells; assay: Inhibition of MDA-MB-435 cell adhesion to immobilized peptide 678 (microscopic adhesion assay); assay type: cell-based, human
Method: (§1) Adhesion assays of cells other than small cell lung carcinoma (SCLC)-Adhesion was measured on polystyrene or glass substrates coated with peptides or proteins as previously described (Guo et al., 1992). Peptides dissolved in PBS at 0.4 to 50 μM were incubated in polystyrene microliter plate wells overnight at 4° C. The wells were washed 3 times with distilled water. Adsorbed peptide was quantified using the BCA assay (Pierce Chemical) measuring absorbance at 570 and 630 nm as described by the supplier's protocol. The assay for adsorption was calibrated using purified peptide in solution as a standard. After blocking with 1% BSA in Dulbecco's PBS, adhesion assays were performed by adding cells suspended in DMEM (BAE cells) or medium 199 (human cells) containing 1 mg/ml BSA. Cell attachment and spreading was quantified microscopically.

[4] = tested on: chick chorioallantoic membrane (CAM) angiogenesis; assay: Chick chorioallantoic membrane (CAM) angiogenesis assay; assay type: in vivo, chicken; conditions: for Angiogenic response (% inhibition): relative to control gels, mean ± SD
Method: Fertilized Leghorn chicken eggs were obtained from Ramona Duck farm (Westminster, Calif.). At day 3 of development, the embryos were placed on 100 mm petri dishes. Assays were performed as previously described (Iruela-Arispe et al., 1999). […] Peptides were filtered on Centricon P100 prior to their analysis on the CAM assays to eliminate traces of endotoxin. Pellets were applied to the outer ⅓ of the CAM, and the assay was performed for 24 h. Detection of capillary growth was done by injection of FITC-dextran in the bloodstream and observation of the pellets under a fluorescent inverted microscope. Positive controls (growth factors and vehicle), as well as negative controls (vehicle alone) were placed in the same CAM and used as reference of 100% stimulation or baseline inhibition (0%), and response to the peptides was determined according to these internal controls. Assays were performed in duplicate in each CAM and in four independent CAMs (total of 8 pellets).

[5] = tested on: BAE cells; conditions: added in solution
Method: (§2) Briefly, 100 μl of a 5×10^4 cell/ml suspension of BAE cells were seeded in triplicate into 96 well tissue culture plate in DMEM medium containing 1% FCS, 10 ng/ml of FGF2 and peptides at 1-40 μM concentrations. Cells were incubated for 72 h, and proliferation was measured using the Celltiter tetrazolium assay (Promega). […] Proliferation was determined at 72 h, and is presented as a percent of the control, mean±S.D., n=3 for experimental points and n=6 for control. […] FIG. 19E: HDME cell proliferation in MCDB growth medium with 5% FCS was determined in the presence of 10 ng/ml FGF2 and the indicated concentrations of TSP1 added in the medium (Δ) or immobilized on the substrate (●) or in wells coated with the indicated concentrations of peptide 678 (●).
(§3) Cell proliferation was measured using the Cell-Titer colorimetric assay (Promega) as previously described (Vogel et al., 1993). A 100 μl volume of BAE cell suspension at 50,000 cells/ml in DMEM containing 1% FBS and supplemented with 10 ng/ml FGF2 was plated in triplicate in 96 well tissue culture plates either in the presence of peptides in solution or in wells that were pre-coated with 100 μl of the peptides at 40° C. overnight and aspirated just before adding cells. Cells were grown for 72 hours at 37° C. in a humidified incubator with 5% CO2. […] HDME cell proliferation was measured in MCDB growth medium without heparin, VEGF, or FGF2.

[6] = tested on: HDME cells; assay: HDME cell proliferation; assay type: cell-based, human
Method: as §2, §3

[7] = tested on: HUVE cells; assay: HUVE cell proliferation; assay type: cell-based, human
Method: Briefly, 100 μl of a 5×10^4 cell/ml suspension of BAE cells were seeded in triplicate into 96 well tissue culture plate in DMEM medium containing 1% FCS, 10 ng/ml of FGF2 and peptides at 1-40 μM concentrations. Cells were incubated for 72 h, and proliferation was measured using the Celltiter tetrazolium assay (Promega). […] Proliferation was determined at 72 h, and is presented as a percent of the control, mean±S.D., n=3 for experimental points and n=6 for control.
Cell proliferation was measured using the Cell-Titer colorimetric assay (Promega) as previously described (Vogel et al., 1993). A 100 μl volume of BAE cell suspension at 50,000 cells/ml in DMEM containing 1% FBS and supplemented with 10 ng/ml FGF2 was plated in triplicate in 96 well tissue culture plates either in the presence of peptides in solution or in wells that were pre-coated with 100 μl of the peptides at […] overnight and aspirated just before adding cells. Cells were grown for 72 hours at 37° C. in a humidified incubator with 5% CO2. HUVEC proliferation was measured by the same protocol but using medium 199 containing 5% FCS without heparin. HDME cell proliferation was measured in MCDB growth medium without heparin, VEGF, or FGF2.

[8] = tested on: BAE cells
Method: Direct adhesion of BAE cells to the adsorbed peptides or uncoated substrate (control) are presented as mean±SD, n=3. […] Two flasks of BAE cells were grown to confluence. One flask was harvested and replated in fresh medium at 25% confluency. Fresh medium was added at the same time to the second flask. After 16 h, cells from both flasks were dissociated using EDTA and adhesion was measured on substrates coated with 40 μg/ml TSP1, 10 μg/ml vitronectin, 20 μg/ml plasma fibronectin, or 5 μg/ml type I collagen. The percent spread cells after 60 min is presented as mean±SD, n=3 for a representative experiment.
Results are presented as mean±SD, n=3. […] The percent spread cells was determined at 60 min.

[9] = tested on: BAE cells; assay: Scratch wound repair of BAE cells; assay type: cell-based, bovine; conditions: cells arrested using 5-fluorouracil; 24 h
Method: BAE cells were seeded at a density of 2×10^5 cells/well of 6 well tissue culture plates in complete growth medium supplemented with 10% FBS. After the cells formed a confluent cobblestone, cells were arrested using 10 μg/ml 5-fluorouracil for 48 h. Scrape wounds of 2 mm, width were made in the wells, and the cells were further incubated with medium containing 10% FBS, 10 μg/ml 5 fluorouracil and peptides 678, 709, or 690. Measurements of the distance between the wound margins were taken at 0 and 24 h, and the net migration is expressed as mean±SEM for triplicates.
The in vitro wound healing assay used was a slight modification of that described by Joyce et al. (Joyce et al., 1989). A confluent monolayer of BAE cells pretreated with 10 μg/ml 5-fluorouracil for […] were used in this assay. […] Mitosis of the BAE cells in the monolayers was inhibited by addition of 5-fluorouracil, so that the rate of wound closure was due solely to the migration of cells into the wound sites. The distances between the wound margins were measured as soon as the wound was made and 24 hours later using a grid incorporated into the eye piece of the microscope. All data represent the results obtained from three independent scratch wounds for each peptide tested.

[10] = tested on: HUVEC; assay: HUVEC spreading on coated substrates; assay type: cell-based, human; conditions: for percent spread HUVEC on immobilized substrate: data not shown
Method: FIGS. 14A, 14B and 14C display α3β1 and αvβ3 integrin-mediated spreading of endothelial cells on thrombospondin-1. […] Results are expressed as percent of the response for untreated cells, mean±S.D., n=3.
as §1

FQGVLQNVRFVF [Peptide 678]
IC50 [1]: 15 µM
IC50 [2]: 6 µM
IC50 ([3]; Table 3, 5 μM peptide 678, read-out: IC50 (μM), inhibition of MDA-MB-435 cell adhesion to immobilized peptide 678): 3.5 µM
IC50 ([3]; microscopic adhesion assay, polystyrene coated with 5 μM peptide 678, peptides in solution, read-out: Inhibition of peptide 678 (IC50)): 3.5 µM
Angiogenic response (% inhibition) ([4]; 5 μM peptide): 2 ± 5%
Angiogenic response (% inhibition) ([4]; 10 μM peptide): 17 ± 7%
Angiogenic response (% inhibition) ([4]; 20 μM peptide): 37 ± 9%
angiogenesis stimulated by FGF2 ([4]; 20 micromolar): 68±5 % of control
angiogenesis stimulated by VEGF ([4]; 20 micromolar): 73±7 % of control
angiogenesis stimulated by a mixture of both growth factors ([4]; 20 micromolar): 59±5 % of control
inhibition of BAE cell proliferation [5]: inhibited
HDME cell proliferation after plating on immobilized substance [6]: enhancement
HUVE cell proliferation, peptide in solution ([7]; added in solution): significantly inhibited
HUVE cell proliferation on immobilized peptide ([7]; immobilized on the substrate): increased their proliferation
inhibition of BAE cell spreading on fibronectin or vitronectin substrates [8]: did not inhibit
inhibition of BAE spreading on fibronectin ([8]; 30 μM (FIG. 12)): did not inhibit
inhibition of density-dependent BAE spreading on intact TSP1 and the TSP1 peptide ([8]; peptide added in solution): inhibited
endothelial cell attachment on immobilized peptide ([8]; peptides adsorbed at 10 μM (FIG. 11A)): attached specifically
inhibition of BAE cell migration into the wound [9]: dose-dependent inhibitor
inhibition of HUVEC spreading on vitronectin [10]: not significantly inhibited
inhibition of HUVEC spreading on TSP1 ([10]; 20 μM peptide 678 (FIG. 14B)): 70±7%
percent spread HUVEC on immobilized substrate ([10]; confluent cells): 3±1%
percent spread HUVEC on immobilized substrate ([10]; sparse cultures): 12±3%
